Test results taken from US20080293820A1, “METHODS FOR IMPROVING PHYSICAL FUNCTION IN FIBROMYALGIA” (Cypress Bioscience, Inc., priority 2007, published 2008).
Counter-ions that a name gives are not always drawn.

Test system: patients who meet the 1990 ACR criteria for fibromyalgia syndrome
Assay: Example 2: multicenter, double-blind, randomized, placebo-controlled monotherapy study of milnacipran for treatment of fibromyalgia (1196 patients)
Format: in vivo, human
Design: Mean Change from Baseline in PFI SF-36 domain score / Mean Change from Baseline in ROLP SF-36 domain score / Mean Change from Baseline in PAIN SF-36 domain score / Mean Change from Baseline in GHP SF-36 domain score: scale not given here
Details: for Composite Pain: number of responders / Composite Syndrome: number of responders / PGIC Component: number of responders / Pain Component: number of responders / SF36 PCS Component: number of responders: 100 mg (399); for time-weighted average (AUC) of SF-36 PCS Scores, Difference from Placebo / time-weighted average (AUC) of SF-36 PCS Scores, LS Mean: Tx3-Tx15, ANCOVA model
Procedure: The primary outcome was a composite responder analysis assessing response rates of two doses (100 mg/day and 200 mg/day) of milnacipran as compared with placebo at Visit Tx15 (week 15).
This was a multicenter, randomized, double-blind, placebo-controlled three-arm study designed which enrolled 1196 patients who meet the 1990 ACR criteria for fibromyalgia syndrome (history of widespread pain and pain in 11 of 18 tender point sites on digital palpation), as well as the more detailed admission criteria outlined in the protocol.
Patients were randomized to receive placebo, 100 mg/day milnacipran or 200 mg/day milnacipran in a ratio of 1:1:1 (placebo=401 patients, 100 mg/day=399 patients, 200 mg/day=396 patients). The patients assigned to the two active treatment arms received a total of 12 weeks of stable-dose milnacipran exposure after the 3 weeks of dosage escalation steps, for a total of 15 weeks of drug exposure. All randomized medications (placebo and milnacipran) were administered twice a day (BID).
The primary efficacy assessment of this study was a composite responder status defined by three domains of interest evaluated at visit Tx15. The domains measured were
1) pain (measured by an electronic diary in the morning as a daily recall pain score); 2) patient global (measured by the PGIC, 1-7 scale); 3) physical function (measured by the SF-36 PCS).
The secondary efficacy parameters were time-weighted average (AUC) of the weekly average PED morning recall pain scores for Weeks 4 through 15, PGIC, and SF-36 PCS for Visit Tx3 to Visit Tx15.
The physical function domain for response analysis was measured by the Physical Component Summary of SF-36 (SF-36 PCS). The SF-36 is a brief, well-established, self-administered patient questionnaire for the assessment of health status, functional status, and quality of life. The SF-36 measures eight domains of health status: physical functioning, role limitations due to physical problems, bodily pain, general health perceptions, energy/vitality, social functioning, role limitations due to emotional problems, and mental health. An SF-36 PCS score and a mental component summary (MCS) score can be calculated by combining and weighting the various individual scales. The PCS and MCS scores have been standardized to have a mean=50, SD=10 in the general healthy US population (see, e.g., Ware, J., M. Kosinski, and J. Dewey, How to Score Version 2 of the SF-36 Health Survey (Standard & Acute Forms). 3rd ed. 2000, Lincoln, R.I.: QualityMetric).
A patient was classified as a responder for the treatment of pain of fibromyalgia if he or she reached Visit Tx15 and satisfied the following criteria: • Greater than or equal to 30% in pain reduction from baseline; • PGIC rated as “much or very much improved,” (i.e., a score of 1 or 2 on the 1-7 scale at endpoint.)
A patient was classified as a responder for the treatment of FMS if he or she satisfied the responder criteria for the treatment of pain of fibromyalgia and the following additional criterion (at visit Tx15): • Improvement on the SF-36 PCS score from baseline by an amount at least equivalent to the minimal clinically important difference, as defined in the Statistical Analysis Plan.
Table 6 summarizes 3-month results for the Baseline Observation Carried Forward (BOCF), Last Observation Carried Forward (LOCF) and study completer (OC) populations. LOCF is an analysis in which observations are carried forward to the last time point for patients who dropped out. The LOCF analysis treats the carried-forward data as observed data at the last time point. BOCF is an analysis that requires that the patient remain active in the trial to be evaluated for response. If a patient withdrew from the trial for any reason, they were classified as a non-responder irregardless of their pain and global scores at the time of withdrawal. […]

[1] = 100 mg, Visits Tx3-Tx15, LOCF, intent to treat

CCN(CC)C(=O)C1(c2ccccc2)CC1CN (racemic) [milnacipran, Z-2-aminomethyl-1-phenyl-N,N-diethylcyclopropanecarboxamide hydrochloride]
Composite Pain: number of responders (3-months, BOCF): 91
Composite Syndrome: number of responders (3-months, BOCF): 58
PGIC Component: number of responders (3-months, BOCF): 125
Pain Component: number of responders (3-months, BOCF): 124
SF36 PCS Component: number of responders (3-months, BOCF): 108
Composite Pain: number of responders (3-months, LOCF): 103
Composite Syndrome: number of responders (3-months, LOCF): 65
PGIC Component: number of responders (3-months, LOCF): 138
Pain Component: number of responders (3-months, LOCF): 149
SF36 PCS Component: number of responders (3-months, LOCF): 129
physical function in patients with fibromyalgia compared to placebo (in words) (100 mg or 200 mg): surprisingly and effectively improves physical function
Composite Pain: responder rate (100 mg, 3-months, BOCF): (22.81%)
Composite Pain: responder rate difference from placebo (unlabelled line) (100 mg, 3-months, BOCF): 6.35%
Composite Syndrome: responder rate (100 mg, 3-months, BOCF): (14.54%)
Composite Syndrome: responder rate difference from placebo (unlabelled line) (100 mg, 3-months, BOCF): 5.81%
PGIC Component: responder rate (100 mg, 3-months, BOCF): (31.33%)
PGIC Component: responder rate difference from placebo (unlabelled line) (100 mg, 3-months, BOCF): 8.39%
Pain Component: responder rate (100 mg, 3-months, BOCF): (31.08%)
Pain Component: responder rate difference from placebo (unlabelled line) (100 mg, 3-months, BOCF): 5.89%
SF36 PCS Component: responder rate (100 mg, 3-months, BOCF): (27.07%)
SF36 PCS Component: responder rate difference from placebo (unlabelled line) (100 mg, 3-months, BOCF): 5.62%
Composite Pain: responder rate (100 mg, 3-months, LOCF): (25.81%)
Composite Pain: responder rate difference from placebo (unlabelled line) (100 mg, 3-months, LOCF): 7.61%
Composite Syndrome: responder rate (100 mg, 3-months, LOCF): (16.29%)
Composite Syndrome: responder rate difference from placebo (unlabelled line) (100 mg, 3-months, LOCF): 6.56%
PGIC Component: responder rate (100 mg, 3-months, LOCF): (34.59%)
PGIC Component: responder rate difference from placebo (unlabelled line) (100 mg, 3-months, LOCF): 9.65%
Pain Component: responder rate (100 mg, 3-months, LOCF): (37.34%)
Pain Component: responder rate difference from placebo (unlabelled line) (100 mg, 3-months, LOCF): 8.66%
SF36 PCS Component: responder rate (100 mg, 3-months, LOCF): (32.33%)
SF36 PCS Component: responder rate difference from placebo (unlabelled line) (100 mg, 3-months, LOCF): 6.89%
Composite Pain: m/n = # of responders/# of patients included (100 mg, 3-months, OC): 91/236
Composite Pain: responder rate (100 mg, 3-months, OC): (38.56%)
Composite Pain: responder rate difference from placebo (unlabelled line) (100 mg, 3-months, OC): 13.37%
Composite Syndrome: m/n = # of responders/# of patients included (100 mg, 3-months, OC): 58/236
Composite Syndrome: responder rate (100 mg, 3-months, OC): (24.58%)
Composite Syndrome: responder rate difference from placebo (unlabelled line) (100 mg, 3-months, OC): 11.22%
PGIC Component: m/n = # of responders/# of patients included (100 mg, 3-months, OC): 125/263
PGIC Component: responder rate (100 mg, 3-months, OC): (47.53%)
PGIC Component: responder rate difference from placebo (unlabelled line) (100 mg, 3-months, OC): 15.70%
Pain Component: m/n = # of responders/# of patients included (100 mg, 3-months, OC): 124/237
Pain Component: responder rate (100 mg, 3-months, OC): (52.32%)
Pain Component: responder rate difference from placebo (unlabelled line) (100 mg, 3-months, OC): 13.92%
SF36 PCS Component: m/n = # of responders/# of patients included (100 mg, 3-months, OC): 108/263
SF36 PCS Component: responder rate (100 mg, 3-months, OC): (41.06%)
SF36 PCS Component: responder rate difference from placebo (unlabelled line) (100 mg, 3-months, OC): 11.40%
time-weighted average (AUC) of SF-36 PCS Scores, Difference from Placebo (100 mg, LOCF): 16.78
time-weighted average (AUC) of SF-36 PCS Scores, LS Mean (100 mg, LOCF): 425.22
time-weighted average (AUC) of SF-36 PCS Scores, Difference from Placebo (100 mg, OC): 20.22
time-weighted average (AUC) of SF-36 PCS Scores, LS Mean (100 mg, OC): 437.91
Mean Change from Baseline in GHP SF-36 domain score (100 mg, Tx 15, Observed Cohort): 6.0
Mean Change from Baseline in PAIN SF-36 domain score (100 mg, Tx 15, Observed Cohort): 15.9
Mean Change from Baseline in PCS Score at Tx 15 (100 mg, Tx 15, Observed Cohort): 5.0
Mean Change from Baseline in PFI SF-36 domain score (100 mg, Tx 15, Observed Cohort): 6.8
Mean Change from Baseline in ROLP SF-36 domain score (100 mg, Tx 15, Observed Cohort): 13.7
time-weighted average (AUC) of SF-36 PCS Scores, Mean [1]: 423.86
time-weighted average (AUC) of SF-36 PCS Scores, Median [1]: 418.2
time-weighted average (AUC) of SF-36 PCS Scores, Mean (100 mg, Visits Tx3-Tx15, OC, intent to treat): 435.76
